From article PMC2425470 (Nucleic Acids Research, 2008)

Key:
[1] = target: T1, CF Im25 (25 kDa subunit of human cleavage factor Im; CPSF5; NUDT21) (Homo sapiens, UniProt O43809); assay: steady-state tryptophan fluorescence titration; format: binding
[2] = target: T1, CF Im25 (25 kDa subunit of human cleavage factor Im; CPSF5; NUDT21); assay: […] Å crystal structure; format: binding

T1 sequence (O43809 whole entry): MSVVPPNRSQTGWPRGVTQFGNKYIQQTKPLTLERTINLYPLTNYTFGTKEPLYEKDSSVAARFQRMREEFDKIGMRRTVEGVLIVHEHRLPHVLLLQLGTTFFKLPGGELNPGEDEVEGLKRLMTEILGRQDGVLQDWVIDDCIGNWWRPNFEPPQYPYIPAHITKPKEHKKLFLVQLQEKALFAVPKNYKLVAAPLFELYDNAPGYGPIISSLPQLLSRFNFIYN

| Kd [1] | Kd [2] | Structure (SMILES) |
| --- | --- | --- |
| 1.53 ± 0.18 mM | – | Nc1ncnc2c1ncn2[C@@H]1O[C@H](COP(=O)(O)OP(=O)(O)OP(=O)(O)O)[C@@H](O)[C@H]1O [ATP] |
| – | 2440 ± 490 nM | Nc1ncnc2c1ncn2[C@@H]1O[C@H](COP(=O)(O)OP(=O)(O)OP(=O)(O)OP(=O)(O)OC[C@H]2O[C@@H](n3cnc4c(N)ncnc43)[C@H](O)[C@@H]2O)[C@@H](O)[C@H]1O [Ap4A] |
